Values quoted from earlier work in PMC7686313, “Phase 1 study of mTORC1/2 inhibitor sapanisertib (TAK-228) in advanced solid tumours, with an expansion phase in renal, endometrial or bladder cancer” (British Journal of Cancer, 2020).

How the values were obtained:
[1] = system: refractory clear-cell RCC; design: method as in earlier work; conditions: 10 mg QD; cited from earlier work
RCC = conditions: patients with RCC; cited from earlier work

Row | Compound | ORR [1] [%] | ORR (RCC) [%]
1 | CO[C@H]1C[C@@H]2CC[C@@H](C)[C@@](O)(O2)C(=O)C(=O)N2CCCC[C@H]2C(=O)O[C@H]([C@H](C)C[C@@H]2CC[C@@H](OCCO)[C@H](OC)C2)CC(=O)[C@H](C)/C=C(\C)[C@@H](O)[C@@H](OC)C(=O)[C@H](C)C[C@H](C)/C=C/C=C/C=C/1C [everolimus, reference compound] | 13 | –
2 | CO[C@H]1C[C@@H]2CC[C@@H](C)[C@@](O)(O2)C(=O)C(=O)N2CCCC[C@H]2C(=O)O[C@H]([C@H](C)C[C@@H]2CC[C@@H](OC(=O)C(C)(CO)CO)[C@H](OC)C2)CC(=O)[C@H](C)/C=C(\C)[C@@H](O)[C@@H](OC)C(=O)[C@H](C)C[C@H](C)/C=C/C=C/C=C/1C [temsirolimus] | – | 8.6
